Data taken from PubChem BioAssay (NCI).
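48-hour exposure; five concentrations; linearly interpolated endpoints. At the GI50, growth is halved. TGI is the concentration that stops growth completely.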

Assays:
Assay in all cases: growth of human tumour cells (NCI), 48 h
NCI-H23 lung = system: NCI-H23 lung
LOX IMVI melanoma = system: LOX IMVI melanoma
SN12C renal = system: SN12C renal
HOP-62 NSCLC = system: HOP-62 NSCLC
SK-MEL-28 melanoma = system: SK-MEL-28 melanoma
MDA-MB-435 = system: MDA-MB-435
DU-145 prostate = system: DU-145 prostate
SK-MEL-2 melanoma = system: SK-MEL-2 melanoma

Structure (SMILES) | GI50 (NCI-H23 lung) | TGI (NCI-H23 lung) | GI50 (LOX IMVI melanoma) | TGI (LOX IMVI melanoma) | GI50 (SN12C renal) | TGI (SN12C renal) | GI50 (HOP-62 NSCLC) | TGI (HOP-62 NSCLC) | GI50 (SK-MEL-28 melanoma) | TGI (SK-MEL-28 melanoma) | GI50 (MDA-MB-435) | TGI (MDA-MB-435) | GI50 (DU-145 prostate) | TGI (DU-145 prostate) | TGI (SK-MEL-2 melanoma) | GI50 (SK-MEL-2 melanoma)
Cc1n(Cc2ccc3ccccc3c2)cc[n+]1Cc1ccc2ccccc2c1 | 0.717 µM | 2.93 µM | 0.951 µM | 2.2 µM | 1.22 µM | 10.2 µM | 1.6 µM | 8.35 µM | 1.02 µM | 3.05 µM | 0.544 µM | 2.38 µM | 1.87 µM | 12.1 µM | – | –
O=C(O)c1ccccc1-c1ccccc1C(=O)Nc1ccc2c(c1)Cc1cc(F)ccc1-2 | – | 36.5 µM | – | 77.7 µM | – | 45.5 µM | – | 87.4 µM | – | > 100 µM | – | > 100 µM | – | > 100 µM | 37.9 µM | –
COc1cc(/C=C2\C(=O)Nc3ccc(F)cc32)cc(OC)c1OC | 24 µM | > 100 µM | 20.5 µM | > 100 µM | 51.8 µM | > 100 µM | 35.8 µM | > 100 µM | 56.7 µM | > 100 µM | 5.5 µM | > 100 µM | 18.4 µM | > 100 µM | > 100 µM | 96.4 µM
CCN(CC)CC(C)(C)C(=O)/C=C/c1ccc(Cl)c(Cl)c1 | 1.9 µM | 4.17 µM | 0.774 µM | 2.03 µM | – | – | 1.75 µM | 3.29 µM | 1.57 µM | 3.08 µM | 1.6 µM | 3.28 µM | 1.41 µM | 2.71 µM | 4.63 µM | 2.5 µM
Cc1c(C2Nc3ccccc3C2C)[nH]c2ccccc12 (stereo unspecified) | 14.5 µM | 32.1 µM | – | – | 11.4 µM | 24.1 µM | 12.1 µM | 26.1 µM | 12 µM | 26.2 µM | 10.6 µM | 24.6 µM | 14.5 µM | 38.7 µM | – | –
CCN1C(=O)N(CC)C2C1NC(=S)N2/N=C/C=C/c1cccs1 (stereo unspecified) | 0.658 µM | > 100 µM | 0.55 µM | > 100 µM | 0.62 µM | > 100 µM | 0.414 µM | > 100 µM | – | > 100 µM | – | – | 0.341 µM | > 100 µM | > 100 µM | 0.529 µM
COc1ccc(-n2cc(-c3ccc(Cl)c(Cl)c3)nc2SCc2cccc(C#N)c2)cc1 | 39.8 µM | > 100 µM | 13.9 µM | > 100 µM | 14 µM | 35.7 µM | 24.7 µM | > 100 µM | 20.2 µM | > 100 µM | 12.5 µM | > 100 µM | > 100 µM | > 100 µM | > 100 µM | > 100 µM
Cc1ccc(N(CSc2ccc(Cl)cc2)CSc2ccc(Cl)cc2)cc1 | 2.27 µM | 10.5 µM | 0.189 µM | 0.694 µM | 0.501 µM | 14.5 µM | 2.71 µM | 16.4 µM | 1.64 µM | 4.23 µM | 0.927 µM | 9.38 µM | 2.57 µM | 23 µM | 25 µM | 3.76 µM
CCCCCc1c(C)[nH]c(/C=C2\N=C(c3ccc[nH]3)C=C2CC)c1C | < 0.0124 µM | 0.135 µM | < 0.01 µM | – | 0.0169 µM | 0.226 µM | 0.0128 µM | 0.0795 µM | 0.0296 µM | 0.144 µM | < 0.01 µM | 0.108 µM | < 0.01 µM | 1.19 µM | 0.0257 µM | < 0.01 µM
Cc1ccc(Nc2nc(N)c(C(=O)c3ccc(C#N)cc3)s2)cc1 | 0.743 µM | > 100 µM | 0.522 µM | > 100 µM | 0.617 µM | > 100 µM | 0.503 µM | > 70.3 µM | 18.9 µM | > 100 µM | 0.0779 µM | – | 0.675 µM | > 100 µM | 46.1 µM | 0.435 µM
O=C(Nc1cccc(Cl)c1Cl)c1cccc(NC2=C(Cl)C(=O)N(Cc3ccccc3)C2=O)c1 | 41.4 µM | > 100 µM | 13.1 µM | > 100 µM | 30.2 µM | > 100 µM | > 100 µM | > 100 µM | > 100 µM | > 100 µM | 20.4 µM | 53.2 µM | 21.2 µM | > 100 µM | 58.6 µM | 16.9 µM
O=C1/C(=C\c2cccn2Cc2ccccc2)c2ccccc2N1c1c(Cl)cccc1Cl | > 63 µM | > 100 µM | > 100 µM | > 100 µM | > 100 µM | > 100 µM | > 100 µM | > 100 µM | > 100 µM | > 100 µM | > 100 µM | > 100 µM | > 100 µM | > 100 µM | > 30.1 µM | 2.4 µM
